Measured values published in publication PMC6713143, “Design, synthesis and biological activity of selective hCAs inhibitors based on 2-(benzylsulfinyl)benzoic acid scaffold” (Journal of Enzyme Inhibition and Medicinal Chemistry, 2019).
Where two headings read alike, the source gives them in different places.

Experiments:
hCA II [1] = biological target: T1, hCA II (Homo sapiens, UniProt P00918); experiment: stopped-flow CO2 hydrase assay, hCA II; assay type: biochemical; settings: mean from three determinations, errors 5–10%
T1 construct: made in house
Method: (§1) An Applied Photophysics stopped-flow instrument has been used for assaying the CA catalysed CO2 hydration activity. […] The CO2 concentrations ranged from 1.7 to 17 mM for the determination of the kinetic parameters and inhibition constants. In particular, CO2 was bubbled in distilled deionised water for 30 min till saturation. A CO2 kit (Sigma, Milan, Italy) was used to measure the concentration in serially diluted solutions from the saturated one at the same temperature. […] The uncatalyzed rates were determined in the same manner and subtracted from the total observed rates. Stock solutions of inhibitor (1 µM) were prepared in distilled-deionised water and dilutions up to 0.1 nM were done thereafter with the assay buffer. […] The inhibition constants were obtained by non-linear least-squares methods using PRISM 3 and the Cheng-Prusoff equation[29], and represent the average from at least three different determinations. All recombinant CA isoforms were obtained in-house as previously reported[30]^,[31].

hCA IX [2] = biological target: T2, hCA IX (Homo sapiens, UniProt Q16790); experiment: stopped-flow CO2 hydrase assay, hCA IX; assay type: biochemical; settings: mean from three determinations, errors 5–10%
T2 construct: made in house
Method: as §1

hCA I [3] = biological target: T3, hCA I (Homo sapiens, UniProt P00915); experiment: stopped-flow CO2 hydrase assay, hCA I; assay type: biochemical; settings: mean from three determinations, errors 5–10%
T3 construct: made in house
Method: as §1

hCA XII [4] = biological target: T4, hCA XII (Homo sapiens, UniProt O43570); experiment: stopped-flow CO2 hydrase assay, hCA XII; assay type: biochemical; settings: mean from three determinations, errors 5–10%
T4 construct: made in house
Method: as §1

hCA II [5] = biological target: T1, hCA II; parameters: method as in PMID 25407638; settings: lead compound, earlier report; cited from earlier work
hCA I [6] = biological target: T3, hCA I; parameters: method as in PMID 25407638; settings: lead compound, earlier report; cited from earlier work
hCA IX [7] = biological target: T2, hCA IX; parameters: method as in PMID 25407638; settings: lead compound, earlier report; cited from earlier work
hCA XII [8] = biological target: T4, hCA XII; parameters: method as in PMID 25407638; settings: lead compound, earlier report; cited from earlier work

T4 sequence (O43570 25-354): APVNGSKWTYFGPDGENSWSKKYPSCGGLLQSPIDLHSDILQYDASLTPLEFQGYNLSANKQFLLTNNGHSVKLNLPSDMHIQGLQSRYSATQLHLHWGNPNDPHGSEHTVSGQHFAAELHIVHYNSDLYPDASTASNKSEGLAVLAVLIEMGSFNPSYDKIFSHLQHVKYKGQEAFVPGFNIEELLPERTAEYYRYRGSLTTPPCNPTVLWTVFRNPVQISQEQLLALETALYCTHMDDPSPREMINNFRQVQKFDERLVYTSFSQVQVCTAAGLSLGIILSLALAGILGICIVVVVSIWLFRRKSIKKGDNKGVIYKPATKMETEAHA
T3 sequence (P00915 whole entry): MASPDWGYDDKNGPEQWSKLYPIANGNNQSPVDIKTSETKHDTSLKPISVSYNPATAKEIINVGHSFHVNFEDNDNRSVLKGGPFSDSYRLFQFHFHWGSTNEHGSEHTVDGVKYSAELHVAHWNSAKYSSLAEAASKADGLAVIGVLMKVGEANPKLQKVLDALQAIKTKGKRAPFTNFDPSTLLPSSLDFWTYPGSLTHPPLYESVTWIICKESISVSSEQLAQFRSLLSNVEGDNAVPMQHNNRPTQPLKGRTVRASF

Ki (hCA II [1])	Ki (hCA IX [2])	Ki (hCA I [3])	Ki (hCA XII [4])	Structure (SMILES)	also measured
45.7 µM	1 µM	> 100 µM		COC(=O)c1ccccc1SCc1ccc(Cl)cc1 [Compound 10]	
84.9 µM	15.3 µM	> 100 µM		COC(=O)c1ccccc1[S@+]([O-])Cc1ccccc1 [(R)-8]	
> 100 µM	2.3 µM	> 100 µM	> 100 µM	CCCS(=O)(=O)c1ccccc1C(N)=O [Compound 32]	
40.1 µM	21.1 µM	> 100 µM		COC(=O)c1ccccc1S(=O)(=O)Cc1ccc(Cl)cc1 [Compound 12]	
> 100 µM	11.4 µM	> 100 µM		COC(=O)c1ccccc1S(=O)(=O)Cc1ccccc1 [Compound 9]	
> 100 µM	> 100 µM	> 100 µM		COC(=O)c1ccccc1SCC(=O)c1ccccc1 [Compound 13]	
> 100 µM	> 100 µM	> 100 µM		COC(=O)c1ccccc1[S+]([O-])CC(=O)c1ccccc1 (stereo not shown) [Compound 14]	
> 100 µM	> 100 µM	> 100 µM	> 100 µM	CC(=O)c1ccccc1NCc1ccccc1 [Compound 53]	
> 100 µM	> 100 µM	> 100 µM	> 100 µM	O=C(O)c1ccccc1NCc1ccccc1 [Compound 40]	
> 100 µM	> 100 µM	> 100 µM	> 100 µM	O=C(NO)c1ccccc1NCc1ccccc1 [Compound 51]	
> 100 µM	> 100 µM	> 100 µM	> 100 µM	COC(=O)c1ccccc1CCc1ccccc1 [Compound 46]	
> 100 µM	> 100 µM	> 100 µM	> 100 µM	COC(=O)c1ccccc1OCc1ccccc1 [Compound 44]	
68.2 µM	25.8 µM	> 100 µM		CNC(=O)c1ccccc1S(=O)(=O)Cc1ccccc1 [Compound 21]	
> 100 µM	18.1 µM	> 100 µM		COC(=O)c1ccccc1[S@@+]([O-])Cc1ccc(Cl)cc1 [(S)-11]	
2.67 µM	> 10 µM	> 10 µM	0.066 µM	NC(=O)c1ccccc1S(=O)(=O)Cc1ccccc1 [Compound 18]	Ki hCA IX (hCA IX [2]): completely lost the affinity
65.7 µM	20 µM	> 100 µM		COC(=O)c1ccccc1[S@@+]([O-])Cc1ccccc1 [(S)-8]	
> 100 µM	14 µM	> 100 µM	> 100 µM	CS(=O)(=O)c1ccccc1C(N)=O [Compound 26]	
> 100 µM	8.7 µM	> 100 µM	> 100 µM	CCCCCS(=O)(=O)c1ccccc1C(N)=O [Compound 38]	
> 100 µM	1.4 µM	> 100 µM		COC(=O)c1ccccc1[S@+]([O-])Cc1ccc(Cl)cc1 [(R)-11]	
> 100 µM	> 100 µM	> 100 µM	> 100 µM	COC(=O)c1ccccc1NCc1ccccc1 [Compound 45]	
> 100 µM	> 100 µM	> 100 µM	> 100 µM	NC(=O)c1ccccc1NCc1ccccc1 [Compound 48]	
> 100 µM	16.4 µM	> 100 µM		CC(=O)c1ccccc1S(=O)(=O)Cc1ccccc1 [Compound 3]	
> 100 µM	2.3 µM	> 100 µM		O=C(O)c1ccccc1S(=O)(=O)Cc1ccccc1 [Compound 6]	
> 100 µM	22.7 µM	> 100 µM	> 100 µM	CCS(=O)(=O)c1ccccc1C(N)=O [Compound 29]	
> 100 µM	> 100 µM	> 100 µM		COC(=O)c1ccccc1S(=O)(=O)CC(=O)c1ccccc1 [Compound 15]	
> 100 µM	13.5 µM	> 100 µM	> 100 µM	CCCCS(=O)(=O)c1ccccc1C(N)=O [Compound 35]	
> 100 µM	> 100 µM	> 100 µM	> 100 µM	O=C(O)c1ccccc1OCc1ccccc1 [Compound 39]	
86.3 µM	19.8 µM	> 100 µM		CNC(=O)c1ccccc1SCc1ccccc1 [Compound 19]	
75.2 µM	15 µM	> 100 µM		COC(=O)c1ccccc1SCc1ccccc1 [Compound 7]	

The remaining lines, values behind:

Structure (SMILES)	Ki (hCA II [1])	Ki (hCA IX [2])	Ki (hCA I [3])	Ki (hCA XII [4])	also measured
CCCCSc1ccccc1C(N)=O [Compound 33]	> 100 µM	2.5 µM	> 100 µM	> 100 µM	
CCCCCSc1ccccc1C(N)=O [Compound 36]	> 100 µM	2.7 µM	> 100 µM	> 100 µM	
CC(=O)c1ccccc1[S+]([O-])Cc1ccccc1 (stereo not shown) [Compound 2]	63.2 µM	2 µM	> 100 µM		
CCCCC[S+]([O-])c1ccccc1C(N)=O (stereo not shown) [Compound 37]	> 100 µM	27.3 µM	> 100 µM	> 100 µM	
CNC(=O)c1ccccc1[S@@+]([O-])Cc1ccccc1 [(S)-20]	38.9 µM	24.6 µM	> 100 µM		
CCC[S+]([O-])c1ccccc1C(N)=O (stereo not shown) [Compound 31]	> 100 µM	38.2 µM	> 100 µM	> 100 µM	
CSc1ccccc1C(N)=O [Compound 24]	> 100 µM	6.5 µM	> 100 µM	> 100 µM	
C[S+]([O-])c1ccccc1C(N)=O (stereo not shown) [Compound 25]	> 100 µM	34.5 µM	> 100 µM	> 100 µM	
Nc1ccccc1C(=O)O [Compound 43, anthranilic acid]	> 100 µM	> 100 µM	> 100 µM	> 100 µM	
CCCC[S+]([O-])c1ccccc1C(=O)OC (stereo not shown) [Compound 22]	> 100 µM	> 100 µM	> 100 µM		Ki hCA II (hCA II [1]): inactive; Ki hCA IX (hCA IX [2]): inactive; Ki hCA I (hCA I [3]): inactive
NC(=O)c1ccccc1NC(=O)Cc1ccccc1 [Compound 50]	> 100 µM	> 100 µM	> 100 µM	> 100 µM	
O=C(O)c1ccccc1[S@@+]([O-])Cc1ccccc1 [(S)-5]	0.093 µM	1.2 µM	> 100 µM		
CCSc1ccccc1C(N)=O [Compound 27]	> 100 µM	16.7 µM	> 100 µM	> 100 µM	
NC(=O)c1ccccc1[S@+]([O-])Cc1ccccc1 [(R)-17]	52.2 µM	2.2 µM	> 100 µM		
CNC(=O)c1ccccc1[S@+]([O-])Cc1ccccc1 [(R)-20]	52.2 µM	22.8 µM	> 100 µM		
CCCC[S+]([O-])c1ccccc1C(N)=O (stereo not shown) [Compound 34]	> 100 µM	36.4 µM	> 100 µM	> 100 µM	
CCCSc1ccccc1C(N)=O [Compound 30]	90.9 µM	> 100 µM	> 100 µM	> 100 µM	
NC(=O)c1ccccc1CCc1ccccc1 [Compound 49]	> 100 µM	> 100 µM	> 100 µM	> 100 µM	
CC(=O)c1ccccc1SCc1ccccc1 [Compound 1]	> 100 µM	1.1 µM	> 100 µM		
O=C(O)c1ccccc1[S+]([O-])Cc1ccccc1 (stereo not shown) [lead compound, 2-(benzylsulfinyl)benzoic acid]					Ki (hCA II [5]): 0.15 µM; Ki (hCA I [6]): > 10 µM; Ki (hCA IX [7]): 1.29 µM; Ki (hCA XII [8]): > 10 µM
CCCCC[S+]([O-])c1ccccc1C(=O)OC (stereo not shown) [Compound 23]	> 100 µM	> 100 µM	> 100 µM		Ki hCA II (hCA II [1]): inactive; Ki hCA IX (hCA IX [2]): inactive; Ki hCA I (hCA I [3]): inactive
O=C(O)c1ccccc1CCc1ccccc1 [Compound 41]	> 100 µM	> 100 µM	> 100 µM	> 100 µM	
CC(=O)c1ccccc1OCc1ccccc1 [Compound 52]	> 100 µM	> 100 µM	> 100 µM	> 100 µM	
CC[S+]([O-])c1ccccc1C(N)=O (stereo not shown) [Compound 28]	> 100 µM	40.9 µM	> 100 µM	> 100 µM	
NC(=O)c1ccccc1SCc1ccccc1 [Compound 16]	8.22 µM	0.046 µM	> 10 µM	2.66 µM	Ki hCA XII (hCA XII [4]): medium-potency inhibitor
O=C(O)c1ccccc1[S@+]([O-])Cc1ccccc1 [(R)-5]	0.21 µM	1.4 µM	> 100 µM		
NC(=O)c1ccccc1[S@@+]([O-])Cc1ccccc1 [(S)-17]	51.9 µM	1.9 µM	> 100 µM		
O=C(Cc1ccccc1)Nc1ccccc1C(=O)O [Compound 42]	> 100 µM	> 100 µM	> 100 µM	> 100 µM	
